Measurements as given in patent US10407465B2, “Peptides enhancing neuronal outgrowth and application thereof” (Schweitzer Biotech Company Ltd., priority 2014, dated 2019).
Structures can show the parent of a compound that is named as a salt. No end group written: not given here.

Tests used:
[1] = tested on: embryonic hippocampal primary neurons; assay: Neuronal outgrowth assay with immunocytochemistry (anti-Tau, anti-MAP2, DAPI); assay type: cell-based, Sprague-Dawley rats; conditions: for lengths of the first and second order axon branches: p<0.01 or p<0.05; for axon outgrowth: L-form peptide 10^−9 M, treatment at 3 DIV for 3 days, vs PBS negative control
Method: In order to culture embryonic hippocampal primary neurons, pregnant Sprague-Dawley rats were purchased from the National Laboratory Center in Taiwan (Taipei, Taiwan). The hippocampal tissue from the embryos of the Sprague-Dawley rats (embryonic day 19, E19) was dissociated with enzyme and plated onto poly-L-lysine-coated coverslips with a minimal essential medium containing 5% calf serum, 5% horse serum, and 50 ng/mL insulin-transferrin-selenite (Sigma-Aldrich, St. Louis, Mo., USA). After plating, the medium was replaced with 2% of B27-neurobasal medium (Invitrogen, Carlsbad, Calif., USA) containing 0.5 mM glutamine and […]. Embryonic hippocampal primary neurons were incubated at 37° C., 5% CO2 for further experimental treatment.
Primary hippocampal neuron cultures at 3 days in vitro (at DIV3) were treated with 10^−9 M, 10^−12M, 10^−15 M C5 peptide (L-form), 10^−9 M, 10^−12M, 10^−15 M C6 peptide (L-form), 10^−9 M P1 peptide (L-form), 10^−9 M P2 peptide (L-form), 10^−9 M P3 peptide (L-form), 10^−9 M P4 peptide (L-form), 10^−9 M P5 peptide (L-form), 10^−9 M P6 peptide (L-form), 10^−9 M C5 peptide (D-form), and 10^−12 C6 peptide (D-form), respectively, for 3 days, followed by immunocytochemistry. Embryonic hippocampal primary neurons of negative control were treated with PBS. Each treatment condition was run in 3 replicates.
Cultured hippocampal neurons were fixed with 4% paraformaldehyde and permeablized with 0.1% Triton X-100 at room temperature (RT). Cultures were then incubated in the primary rabbit anti-Tau antibody (a selective marker for axons, Millipore, Mass., USA) and the primary mouse anti-MAP2 antibody (microtubule-associated protein-2, which is a selective marker for dendrites, Millipore) for 1 hour at RT. After wash, cells were incubated with Alexa Fluor® 488 goat anti-rabbit secondary antibody (green fluorescence, Abcam Plc., UK) and Alexa Fluor® 594 goat anti-mouse secondary antibody (red fluorescence, Abcam Plc.) for 1 hour at RT. Then, nuclei were stained with 4′,6-diamidino-2-phenylindole (DAPI, blue fluorescence, Vector Laboratories, USA). After that, coverslips were mounted on the cells, and images were obtained by using an Axio Observer D1 microscope (Zeiss, Jena, Germany) and analyzed by ImageJ software (Inage Processing and Analysis in Java, National Institutes of Health, USA). Neuronal process longer than 10 μm is defined as a neurite.
An axon extending from the cell body of a neuron is defined as a first order axon branch; an axon extending from a first order axon branch is defined as a second order axon branch, and an axon extending from a second order axon branch is defined as a third order axon branch, et cetera (FIG. 3A). Only axons longer than 10 μm are counted.

[2] = tested on: embryonic hippocampal primary neurons; assay: Cell viability (MTT) assay for neurotoxicity; assay type: cell-based, Sprague-Dawley rats; conditions: 10^−3 M, 10^−6 M, 10^−9 M, 10^−12M for 24 hours from 1 DIV; p>0.05
Method: At the first day in vitro (1 DIV), embryonic hippocampal primary neurons were treated with 10^−3 M, 10^−6 M, 10^−9 M, 10^−12M C5 peptide or C6 peptide, respectively, for 24 hours, followed by cell viability assay.
Cell viability was evaluated by an MTT (3-(4,5-cimethylthiazol-2-yl)-2,5-diphenyl tetrazolium bromide) assay. Cells were incubated with an MTT reagent (0.5 mg/mL, Sigma-Aldrich, USA) at 37° C. for 1 hour. The MTT solution was removed, and DMSO was added to the wells shaken at room temperature for 1 hour. The amount of MTT formazan product was quantified by measuring its absorbance at 570 and 630 nm by using an ELISA plate reader (SpectraMax M2 Microplate Readers, Molecular Devices, Sunnyvale, Calif., USA).

[3] = tested on: Sco-induced amnesia animal model; assay: Water maze learning, scopolamine-induced memory impairment; assay type: in vivo, Sprague-Dawley rats; conditions: scopolamine 1.5 mg/kg/day i.p. alone; vs negative control; P<0.01
Method: (§1) A plastic circular pool 183 cm in diameter was filled with water (25±2° C.). A circular platform was placed at a specific location from the edge of the pool and submerged below the water surface. Water was made cloudy by adding toxic-free dye. Distinctive visual cues were set on the wall. For spatial learning, animals were subjected to 3 trials per day, with one trial early in the morning, one trial at noon, and another in the late afternoon. The training procedure lasted 4 days, and a total of 12 trials were given. The rats were positioned at different starting points spaced equally around the perimeter of the pool in random order. They had 60 seconds to swim in the pool. If a rat could not find the platform, it was guided to the platform and was allowed to remain there for 20 seconds. The time each animal took to reach the platform was recorded as the escape latency. A probe trial of 60 seconds was given on Day 5 to test their memory retention. The rats were placed in the pool with the platform removed, and the time they spent in each quadrant (Quadrants 1, 2, 3, and 4) was recorded. The longer a rat stayed in the target quadrant (quadrant 4), the better memory the rat had. At the end of the experiment, the rats were subjected to visible platform learning. […] The time the rats found the platform was recorded. […]

[4] = tested on: Sco-induced amnesia animal model; assay: Step-down passive avoidance test, scopolamine-induced memory deficits; assay type: in vivo, Sprague-Dawley rats; conditions: scopolamine 1.5 mg/kg/day alone; 1 day after footshock; vs control
Method: Animals were familiar to the instrument 24 hours before training. Next day rats placed on the elevated platform situated in the center of the floor of the passive avoidance test box and the latency to stepping down recorded. On the third day of the experiment immediately after stepping down, animals received mild electric shock (3V, 3 seconds duration, D.C.) through the grid floor and then returned to their home cages. On the following day (as 24 hours retention interval) rats placed on the platform again while no electric shock was given to them. Latency to step down recorded. If the rat remained on the platform for the 5 minutes, it assigned a maximum score of 300 seconds.
Rats were randomly divided into negative control group, Scopolamine only group, (C5+Sco) group and (C6+Sco) group, and rats in the four groups were injected with vehicle (negative control group and scopolamine only group), C5 peptide (54 μg/kg/day, C5+Sco group), and C6 peptide (5.4 μg/kg/day, C6+Sco group), respectively, for 14 consecutive days. After that, rats in the 4 groups were intraperitoneally injected with vehicle (negative control group), vehicle and scopolamine (1.5 mg/kg/day)(scopolamine only group), C5 peptide (54 μg/kg/day) and scopolamine (1.5 mg/kg/day) (C5+Sco group), and C6 peptide (5.4 μg/kg/day) and scopolamine (1.5 mg/kg/day) (C6+Sco group), respectively, for 7 consecutive days. […]

[5] = tested on: Sco-induced amnesia animal model; assay: Novel object recognition learning, scopolamine-induced memory deficits; assay type: in vivo, Sprague-Dawley rats; conditions: scopolamine 1.5 mg/kg/day alone; vs time on left object; P>0.05
Method: During familiarization, rats were allowed to explore 2 identical objects in an open field box (90×70×60 cm) for 5 min. The criteria used for exploration were a distance less than 1.5 cm between the rat and the object or direct contact with the object. During the retention test given 3 hours and 24 hours later, the rats were returned to the same box, but one of the familiar objects was replaced with a novel object of approximately the same size. The time that each rat spent exploring the 2 objects during a 5-min period was recorded. The rats placed in the open field box without any objects for 5 min were assigned to the non-trained group.
Both C5 peptide and C6 peptide ameliorate scopolamine-induced memory deficits. […] Then, behavioral experiments were conducted, and the injection program with scopolamine continued through the experimentation. The injection volume was 1 μL/g of body weight. The scopolamine injection was performed 30 minutes before behavioral experiments every morning, and the C5 peptide or C6 peptide injection was conducted once daily at 5:00 PM 1 day prior. […] Three (3) hours, 8 hours and 24 hours after, a novel object (NO) replaced the RO.

[6] = tested on: MPTP-mouse model of Parkinson's disease; assay: Rotarod performance test; assay type: in vivo, C57BL/6 male mice; conditions: MPTP 30 mg/kg i.p. alone; negative control 778.5 seconds; p<0.01
Method: C57BL/6 male mice at the age of 5 weeks were randomly divided into 3 groups and intraperitoneally injected with PBS (negative control), MPTP (30 mg/kg)(MPTP group), and C6 peptide (10.7 μg/kg) and MPTP (30 mg/kg)(C6+MPTP group), respectively. The injection volume was calculated based on the body weight of each mouse everyday. Mice of the C6+MPTP group were injected C6 peptide for 3 weeks prior to injection of C6 peptide and MPTP for 1 week, and then subjected to rotarod performance test.
Rotarod performance tests were conducted to measure the coordination of mice. Mice were placed on the rod and ran at 2 rpm constant speed for 2 minutes in order to adapt to the rod. After that, rod was started to accelerate to 20 rpm (within 5 minutes) and sustained for 15 minutes. The time (latency) at which each mouse fell off the rod was recorded.

[7] = tested on: D-Galactose induced aging model rats; assay: Water maze learning, D-galactose induced aging; assay type: in vivo, Sprague-Dawley rats; conditions: D-galactose 150 mg/kg/day i.p. alone for 9 weeks
Method: as §1

Row | Molecule | lengths of the first and second order axon branches ([1]; 10^−9 M, vs negative control) | axon outgrowth [1] | also measured
1 | NVAPQ (Petide for enhancing neuronal outgrowth) [P5 peptide] | longer | enhanced axon outgrowth | 
2 | NLMPQ (Petide for enhancing neuronal outgrowth) [P4 peptide] | longer | enhanced axon outgrowth | 
3 | NPSPQ [C6 peptide, NPSPQ] |  |  | neurotoxic effect (cell viability, MTT) [2]: no significant neurotoxic effect
4 | NMYPQ (Petide for enhancing neuronal outgrowth) [P2 peptide] | longer | enhanced axon outgrowth | 
5 | NAIPQ [C5 peptide, NAIPQ] |  |  | neurotoxic effect (cell viability, MTT) [2]: no significant neurotoxic effect
6 | CN1[C@@H]2C[C@@H](OC(=O)[C@H](CO)c3ccccc3)C[C@H]1[C@@H]1O[C@@H]12 [Sco, Scopolamine hydrochloride] |  |  | escape latency in finding the hidden platform [3]: longer escape latency; stepping down (jumping error number) [4]: stepped down more; exploratory preference for the novel object (NO) [5]: no exploratory preference for the NO
7 | NFEPQ (Petide for enhancing neuronal outgrowth) [P1 peptide] | longer | enhanced axon outgrowth | 
8 | NIKPQ (Petide for enhancing neuronal outgrowth) [P3 peptide] | longer | enhanced axon outgrowth | 
9 | CN1CC=C(c2ccccc2)CC1 [MPTP, 1-methyl-4-phenyl-1,2,3,6-tetrahydropyridine] |  |  | average latency to fall [6]: 159.8 s
10 | O=C[C@H](O)[C@@H](O)[C@@H](O)[C@H](O)CO [D-Galactose, D-(+)-galactose] |  |  | average escape latency in finding the hidden platform [7]: 53.06 s
11 | NWLPQ (Petide for enhancing neuronal outgrowth) [P6 peptide] | longer | enhanced axon outgrowth | average number of second order axon branches ([1]; 10^−9 M, negative control 2.5, p<0.01): 4.2; lengths of the third order axon branches ([1]; 10^−9 M, vs negative control, p<0.05): significantly longer
